# Experimental data published in ChEMBL document CHEMBL5678818, “Discovery of potent SOS1 inhibitors that block RAS activation via disruption of the RAS-SOS1 interaction” (Proc Natl Acad Sci U S A, 2019).
# Columns and labels:
# [1] = target: Phosphatidylinositol 3-kinase catalytic subunit type 3 (Homo sapiens) (UniProt Q8NEB9); experiment: Inhibition of VPS34 (unknown origin) assessed as residual activity at 1000 nM by KINOMEscan analysis relative to control
# [2] = target: T1, Mitogen-activated protein kinase kinase kinase 3 (Homo sapiens) (UniProt Q99759); experiment: Inhibition of MAP3K3 (unknown origin) assessed as residual activity at 100 nM by KINOMEscan analysis relative to control
# T1 sequence (whole entry): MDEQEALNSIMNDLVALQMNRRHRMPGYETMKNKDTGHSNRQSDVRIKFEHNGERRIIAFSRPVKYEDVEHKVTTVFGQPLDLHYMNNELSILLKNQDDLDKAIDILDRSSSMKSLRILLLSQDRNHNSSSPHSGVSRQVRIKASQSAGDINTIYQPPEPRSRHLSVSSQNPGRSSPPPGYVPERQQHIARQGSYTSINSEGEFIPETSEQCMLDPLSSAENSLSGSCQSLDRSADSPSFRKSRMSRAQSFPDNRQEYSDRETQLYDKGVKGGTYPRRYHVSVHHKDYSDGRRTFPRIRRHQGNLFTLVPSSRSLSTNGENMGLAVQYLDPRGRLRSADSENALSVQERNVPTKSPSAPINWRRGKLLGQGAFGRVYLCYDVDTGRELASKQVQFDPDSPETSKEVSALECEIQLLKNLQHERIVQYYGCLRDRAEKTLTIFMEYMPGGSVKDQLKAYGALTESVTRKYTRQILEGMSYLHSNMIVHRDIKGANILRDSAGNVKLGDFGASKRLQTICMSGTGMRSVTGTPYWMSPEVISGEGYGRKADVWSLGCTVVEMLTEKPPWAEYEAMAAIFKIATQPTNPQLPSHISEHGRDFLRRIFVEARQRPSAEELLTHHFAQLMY
# [3] = target: T2, MAP kinase-activated protein kinase 5 (Homo sapiens) (UniProt Q8IW41); experiment: Inhibition of MAPKAPK5 (unknown origin) assessed as residual activity at 100 nM by KINOMEscan analysis relative to control
# T2 sequence (whole entry): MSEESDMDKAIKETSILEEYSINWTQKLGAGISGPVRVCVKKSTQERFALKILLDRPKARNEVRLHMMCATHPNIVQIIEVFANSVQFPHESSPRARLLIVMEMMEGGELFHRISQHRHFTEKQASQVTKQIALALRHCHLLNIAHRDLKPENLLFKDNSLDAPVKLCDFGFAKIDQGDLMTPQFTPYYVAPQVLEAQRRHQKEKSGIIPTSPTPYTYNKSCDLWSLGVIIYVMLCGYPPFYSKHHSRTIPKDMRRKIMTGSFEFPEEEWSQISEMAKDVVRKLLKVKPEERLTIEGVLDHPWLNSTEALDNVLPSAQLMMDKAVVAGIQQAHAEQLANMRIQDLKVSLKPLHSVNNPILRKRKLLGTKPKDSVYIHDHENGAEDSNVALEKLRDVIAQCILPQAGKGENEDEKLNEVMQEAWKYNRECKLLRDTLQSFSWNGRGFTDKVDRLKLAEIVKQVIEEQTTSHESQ
# [4] = target: T3, Mitogen-activated protein kinase kinase kinase 5 (Homo sapiens) (UniProt Q99683); experiment: Inhibition of ASK1 (unknown origin) assessed as residual activity at 100 nM by KINOMEscan analysis relative to control
# T3 sequence (whole entry): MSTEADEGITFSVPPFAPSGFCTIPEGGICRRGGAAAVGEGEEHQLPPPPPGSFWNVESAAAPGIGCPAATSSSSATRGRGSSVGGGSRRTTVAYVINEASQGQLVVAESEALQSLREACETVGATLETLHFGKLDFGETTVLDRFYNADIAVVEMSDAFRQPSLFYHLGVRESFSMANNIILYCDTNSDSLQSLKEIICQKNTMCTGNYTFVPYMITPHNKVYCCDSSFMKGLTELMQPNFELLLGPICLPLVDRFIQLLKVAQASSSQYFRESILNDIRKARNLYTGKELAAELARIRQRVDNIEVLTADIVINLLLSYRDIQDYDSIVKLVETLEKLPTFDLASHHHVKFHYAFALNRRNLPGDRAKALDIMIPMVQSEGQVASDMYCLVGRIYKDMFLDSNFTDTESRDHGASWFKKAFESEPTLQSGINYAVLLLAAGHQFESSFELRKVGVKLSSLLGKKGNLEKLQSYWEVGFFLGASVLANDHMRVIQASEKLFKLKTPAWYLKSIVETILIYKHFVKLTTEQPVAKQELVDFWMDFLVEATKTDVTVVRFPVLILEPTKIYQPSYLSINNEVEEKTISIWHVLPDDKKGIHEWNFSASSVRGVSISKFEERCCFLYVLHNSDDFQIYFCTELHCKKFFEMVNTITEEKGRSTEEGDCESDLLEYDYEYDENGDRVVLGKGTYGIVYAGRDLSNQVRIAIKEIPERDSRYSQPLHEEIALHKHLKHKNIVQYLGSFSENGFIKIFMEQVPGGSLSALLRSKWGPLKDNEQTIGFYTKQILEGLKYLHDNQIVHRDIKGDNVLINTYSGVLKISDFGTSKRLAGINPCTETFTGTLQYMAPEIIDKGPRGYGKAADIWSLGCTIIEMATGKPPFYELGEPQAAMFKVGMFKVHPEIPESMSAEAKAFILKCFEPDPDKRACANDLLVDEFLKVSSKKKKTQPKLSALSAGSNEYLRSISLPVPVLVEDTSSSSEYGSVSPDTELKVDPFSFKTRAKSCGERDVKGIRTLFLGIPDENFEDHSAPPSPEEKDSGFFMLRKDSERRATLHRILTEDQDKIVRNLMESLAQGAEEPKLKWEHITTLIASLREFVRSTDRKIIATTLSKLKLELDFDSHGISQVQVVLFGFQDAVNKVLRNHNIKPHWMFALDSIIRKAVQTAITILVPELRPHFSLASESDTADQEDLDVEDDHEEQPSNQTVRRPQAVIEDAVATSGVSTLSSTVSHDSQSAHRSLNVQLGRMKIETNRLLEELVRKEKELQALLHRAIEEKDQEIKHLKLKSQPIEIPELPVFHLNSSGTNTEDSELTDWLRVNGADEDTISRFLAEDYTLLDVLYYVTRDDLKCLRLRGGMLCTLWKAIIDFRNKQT
# Chain of Phosphatidylinositol 3-kinase catalytic subunit type 3 (Homo sapiens) (Q8NEB9 whole entry): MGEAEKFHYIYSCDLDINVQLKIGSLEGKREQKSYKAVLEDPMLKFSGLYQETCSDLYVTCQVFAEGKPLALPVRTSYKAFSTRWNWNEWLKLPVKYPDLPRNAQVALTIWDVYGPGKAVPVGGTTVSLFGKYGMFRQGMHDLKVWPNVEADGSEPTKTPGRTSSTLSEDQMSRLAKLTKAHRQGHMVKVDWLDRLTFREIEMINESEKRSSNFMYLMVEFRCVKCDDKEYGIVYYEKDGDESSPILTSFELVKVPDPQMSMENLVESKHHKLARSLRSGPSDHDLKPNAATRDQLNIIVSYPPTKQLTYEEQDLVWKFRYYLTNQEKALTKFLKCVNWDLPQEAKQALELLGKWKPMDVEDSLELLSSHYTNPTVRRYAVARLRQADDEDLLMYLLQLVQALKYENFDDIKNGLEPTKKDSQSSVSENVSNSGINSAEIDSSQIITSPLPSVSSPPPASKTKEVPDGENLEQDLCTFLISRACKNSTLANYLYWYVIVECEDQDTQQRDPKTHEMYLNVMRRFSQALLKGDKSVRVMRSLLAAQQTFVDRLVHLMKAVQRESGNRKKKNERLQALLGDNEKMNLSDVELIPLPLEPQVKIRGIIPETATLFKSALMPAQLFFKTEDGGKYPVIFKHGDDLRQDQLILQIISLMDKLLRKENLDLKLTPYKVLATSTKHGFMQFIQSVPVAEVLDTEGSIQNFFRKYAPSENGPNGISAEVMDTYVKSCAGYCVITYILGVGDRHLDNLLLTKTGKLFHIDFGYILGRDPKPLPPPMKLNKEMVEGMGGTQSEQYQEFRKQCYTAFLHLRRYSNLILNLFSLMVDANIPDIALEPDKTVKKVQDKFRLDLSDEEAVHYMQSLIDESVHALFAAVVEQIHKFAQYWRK
SMILES,Activity [1] [%],Activity [2] [%],Activity [3] [%],Activity [4] [%]
COc1cc2nc(C)nc(N[C@H](C)c3cccc(-c4cn[nH]c4)c3)c2cc1OC,100,,,
COc1cc2ncnc(N[C@H](C)c3cccc4ccccc34)c2cc1OC,,90,94,70
